Measured values as given in patent US9145351B2, “Azole derivatives, methods for producing the same, intermediate thereof, agro-horticultural agents” (KUREHA CORPORATION, priority 2009, dated 2015).
Where two headings read alike, the source gives them in different places.

Tests used:
Format in all cases: cell-based
Botritis cinerea = test: Plate medium fungicidal assay, gray mold B.c (Experimental Example 5)
Method: In this Experimental Example, the fungicidal effects of the inventive compounds on various phytopathogenic fungi for plants and hazardous microorganism for industrial materials were examined by the methods described below. Each inventive compound was dissolved in 2 ml of dimethyl sulfoxide. 0.6 ml of this solution was added to 60 nil of a PDA medium (potato dextrose agar medium) at about 60 degrees C., which was mixed thoroughly in a 100-ml conical flask, and poured into a dish, where it was solidified, thereby obtaining a plate medium containing the inventive compound at 50 mg/L and 5 mg/L. On the other hand, a subject microorganism previously cultured on a plate medium was cut out using a cork borer whose diameter was 4 mm, and inoculated to the test compound-containing plate medium described above. […] The growth degree of the microorganism on the test compound-containing plate medium thus observed was compared with the growth degree of the microorganism in the untreated group, and % mycelial growth inhibition was calculated by the following equation. R=100(dc−dt)/dc wherein R=% mycelial extension inhibition, dc=flora diameter in untreated plate, dt=flora diameter in treated plate. The results obtained as described above were evaluated as one of the 5 grades according to the following criteria. […] Gray mold (Botritis cinerea) B.c

Trichoderma sp. = test: Plate medium assay, industrial material deteriorating microorganism, Trichoderma (Experimental Example 5); details: treatment at 50 mg/l, PDA plate medium, read-out: growth inhibition grade
Method: (§1) In this Experimental Example, the fungicidal effects of the inventive compounds on various phytopathogenic fungi for plants and hazardous microorganism for industrial materials were examined by the methods described below. Each inventive compound was dissolved in 2 ml of dimethyl sulfoxide. 0.6 ml of this solution was added to 60 nil of a PDA medium (potato dextrose agar medium) at about 60 degrees C., which was mixed thoroughly in a 100-ml conical flask, and poured into a dish, where it was solidified, thereby obtaining a plate medium containing the inventive compound at 50 mg/L and 5 mg/L. On the other hand, a subject microorganism previously cultured on a plate medium was cut out using a cork borer whose diameter was 4 mm, and inoculated to the test compound-containing plate medium described above. […] The growth degree of the microorganism on the test compound-containing plate medium thus observed was compared with the growth degree of the microorganism in the untreated group, and % mycelial growth inhibition was calculated by the following equation. R=100(dc-dt)/dc wherein R=% mycelial extension inhibition, dc=flora diameter in untreated plate, dt=flora diameter in treated plate. The results obtained as described above were evaluated as one of the 5 grades according to the following criteria.

Sclerotinia sclerotiorum = test: Plate medium fungicidal assay, Sclerotinia rot S.s (Experimental Example 5); details: Sclerotinia sclerotiorum
Method: as §1, with “R=100(dc−dt)/dc” for “R=100(dc-dt)/dc”, “criteria. […] Sclerotinia rot (Sclerotinia sclerotiorum) S.s” for “criteria.”

Alternaria alternata = test: Plate medium fungicidal assay, Alternaria blotch A.m (Experimental Example 5); details: Alternaria alternata
Method: as §1, with “R=100(dc−dt)/dc” for “R=100(dc-dt)/dc”, “criteria. […] Alternaria blotch (Alternaria alternata) A.m” for “criteria.”

Ustilago nuda = test: Plate medium fungicidal assay, barley loose smut U.n (Experimental Example 5); details: Ustilago nuda
Method: as §1, with “R=100(dc−dt)/dc” for “R=100(dc-dt)/dc”, “criteria. […] Barley loose smut (Ustilago nuda) U.n” for “criteria.”

[1] = plate medium containing compound at 5 mg/L, read-out: Growth inhibition grade, B.c
[2] = plate medium containing compound at 50 mg/L, read-out: Growth inhibition grade, B.c
[3] = plate medium containing compound at 5 mg/L, read-out: Growth inhibition grade, S.s
[4] = plate medium containing compound at 50 mg/L, read-out: Growth inhibition grade, S.s
[5] = plate medium containing compound at 5 mg/L, read-out: Growth inhibition grade, A.m
[6] = plate medium containing compound at 50 mg/L, read-out: Growth inhibition grade, A.m
[7] = plate medium containing compound at 5 mg/L, read-out: Growth inhibition grade, U.n
[8] = plate medium containing compound at 50 mg/L, read-out: Growth inhibition grade, U.n
[9] = plate medium, 5 mg/L, read-out: growth inhibition grade B.c
[10] = plate medium, 50 mg/L, read-out: growth inhibition grade B.c
[11] = plate medium, 5 mg/L, read-out: growth inhibition grade S.s
[12] = plate medium, 50 mg/L, read-out: growth inhibition grade S.s
[13] = plate medium, 5 mg/L, read-out: growth inhibition grade A.m
[14] = plate medium, 50 mg/L, read-out: growth inhibition grade A.m
[15] = plate medium, 5 mg/L, read-out: growth inhibition grade U.n
[16] = plate medium, 50 mg/L, read-out: growth inhibition grade U.n

Compound	inhibition at 5 µg/mL (Botritis cinerea; [1])	inhibition at 50 µg/mL (Botritis cinerea; [2])	inhibition at 50 µg/mL (Trichoderma sp.)	inhibition at 5 µg/mL (Sclerotinia sclerotiorum; [3])	inhibition at 50 µg/mL (Sclerotinia sclerotiorum; [4])	inhibition at 5 µg/mL (Alternaria alternata; [5])	inhibition at 50 µg/mL (Alternaria alternata; [6])	inhibition at 5 µg/mL (Ustilago nuda; [7])	inhibition at 50 µg/mL (Ustilago nuda; [8])	inhibition at 5 µg/mL (Botritis cinerea; [9])	inhibition at 50 µg/mL (Botritis cinerea; [10])	inhibition at 5 µg/mL (Sclerotinia sclerotiorum; [11])	inhibition at 50 µg/mL (Sclerotinia sclerotiorum; [12])	inhibition at 5 µg/mL (Alternaria alternata; [13])	inhibition at 50 µg/mL (Alternaria alternata; [14])	inhibition at 5 µg/mL (Ustilago nuda; [15])	inhibition at 50 µg/mL (Ustilago nuda; [16])
O[C@]1(Cn2cncn2)[C@H](Cc2ccc(Cl)cc2)CC[C@@H]1C(F)(F)F (racemic) [Compound I-65, (1RS,2SR,5SR)-5-(4-chlorobenzyl)-2-trifluoromethyl-1-(1H-1,2,4-triazol-1-ylmethyl)cyclopentanol]	60 to 80%	> 80%	60 to 80%	40 to 60%	> 80%	40 to 60%	> 80%	40 to 60%	> 80%	–	–	–	–	–	–	–	–
O[C@]1(Cn2cncn2)[C@@H](Cc2ccc(Cl)cc2)CC[C@@H]1C(F)(F)F (racemic) [Compound I-365, (1RS,2SR,5RS)-5-(4-chlorobenzyl)-2-trifluoromethyl-1-(1H-1,2,4-triazol-1-ylmethyl)cyclopentanol]	–	–	60 to 80%	–	–	–	–	–	–	< 20%	> 80%	20 to 40%	> 80%	20 to 40%	> 80%	20 to 40%	> 80%
C[C@]1(CCl)CC[C@@H](Cc2ccccc2)[C@]1(O)Cn1cncn1 (racemic) [Compound I-73, (1RS,2SR,5SR)-2-chloromethyl-5-benzyl-2-methyl-1-(1H-1,2,4-triazol-1-ylmethyl)cyclopentanol]	> 80%	> 80%	60 to 80%	> 80%	> 80%	> 80%	> 80%	> 80%	> 80%	> 80%	> 80%	> 80%	> 80%	> 80%	> 80%	> 80%	> 80%
C[C@]1(CBr)CC[C@@H](Cc2ccc(F)cc2)[C@]1(O)Cn1cncn1 (racemic) [Compound I-601, (1RS,2SR,5SR)-2-bromomethyl-5-(4-fluorobenzyl)-2-methyl-1-(1H-1,2,4-triazol-1-ylmethyl)cyclopentanol]	–	–	60 to 80%	–	–	–	–	–	–	60 to 80%	> 80%	> 80%	> 80%	60 to 80%	> 80%	40 to 60%	> 80%
C[C@]1(CCl)CC[C@@H](Cc2ccc(Cl)cc2)[C@]1(O)Cn1cncn1 (racemic) [Compound I-1, (1RS,2SR,5SR)-5-(4-chlorobenzyl)-2-chloromethyl-2-methyl-1-(1H-1,2,4-triazol-1-ylmethyl)cyclopentanol]	> 80%	> 80%	60 to 80%	> 80%	> 80%	> 80%	> 80%	> 80%	> 80%	> 80%	> 80%	> 80%	> 80%	> 80%	> 80%	> 80%	> 80%
C[C@]1(CCl)CC[C@@H](Cc2ccc(Cl)cc2)[C@]1(O)Cn1ccnc1 (racemic) [Compound I-244, (1RS,2SR,5SR)-5-(4-chlorobenzyl)-2-chloromethyl-2-methyl-1-imidazol-1-ylmethylcyclopentanol]	–	–	60 to 80%	–	–	–	–	–	–	60 to 80%	> 80%	> 80%	> 80%	> 80%	> 80%	> 80%	> 80%
CC(Cl)=C[C@@]1(C)CC[C@@H](Cc2ccc(Cl)cc2)[C@]1(O)Cn1cncn1 (racemic) [Compound I-15, (1RS,2RS,5SR)-5-(4-chlorobenzyl)-2-(2-chloropropenyl)-2-methyl-1-(1H-1,2,4-triazol-1-ylmethyl)cyclopentanol]	> 80%	> 80%	60 to 80%	> 80%	> 80%	> 80%	> 80%	> 80%	> 80%	–	–	–	–	–	–	–	–
C[C@@]1(CCl)CC[C@H](Cc2ccc(Cl)cc2)[C@]1(O)Cn1cncn1 (racemic) [Compound I-401, (1RS,2RS,5RS)-5-(4-chlorobenzyl)-2-chloromethyl-2-methyl-1-[1,2,4]triazol-1-ylmethylcyclopentanol]	–	–	60 to 80%	–	–	–	–	–	–	> 80%	> 80%	> 80%	> 80%	60 to 80%	> 80%	60 to 80%	> 80%
